Entries after “also recorded” stand apart in the source; their conditions may differ.
Legend:
Assay type in all cases: biochemical
[1] = Exonuclease activity of Phi29 variants; settings: printed in column Ensemble Extension Activity or in text
[2] = system: 5′ fluorescein-labeled primer:template duplex; experiment: Ensemble primer extension with gamma-labeled dNTP by Phi29 mutant protein; settings: for Ensemble Extension Activity: γ-nucleotide incorporation: relative to parent Phi29 exo(−) D12A/D66A, 0.5 μM or 5 μM gamma-labeled dNTP, 10 seconds to 5 minutes; for extension (FIG. 70C, 70D): ensemble PAGE analyses
From the text: Table 1, below, summarizes the ability of each mutant Phi29 polymerase to incorporate gamma-labeled nucleotides (as indicated in the column entitled “Ensemble Extension Activity”), fidelity of replication (as indicated in the column entitled “Fidelity”) and for activity in a single-molecule detected system, as depicted in FIGS. 20-59′ and 69-76 and associated description (see below), and indicated in the last column, entitled “Activity on Detection System.” Each and every mutation introduced into a given Phi29 mutant protein is listed in the column entitled “Mutations”; mutations are designated by the original amino acid/its position/its replacement, e.g., V250A means that valine at position 250 was replaced by alanine by site specific mutagenesis. If two or more amino acid substitutions are made, then each is designated as above and separated by a “/”. The predicted effect of a given mutation on polymerase activity, based on structure-function analysis of Phi29 polymerase, is provided in the column entitled “Expected Effect.” The various Phi29 mutants generated via selective mutagenesis, along with any applicable results of extension studies, fidelity assays and single molecule detection studies using each mutant protein, are collectively summarized in Table 1, below. To perform the extension studies, 330 nM Phi29 mutant protein and 100 nM 5′ fluorescein-labeled primer:template duplex were co-incubated in a solution comprising 50 mM Tris (pH 7.0), 2 mM MnCl2, 2 mM DTT, 0.1% Triton-X-100, 0.01% Tween-20. The reactions were initiated by addition of 0.5 μM or 5 μM of gamma-labeled dNTP, and quenched via addition of 30 mM EDTA at timepoints ranging from 10 seconds to 5 minutes. The reaction products were then separated on a 20% denaturing acrylamide gel and imaged on a Bio-Rad Molecular Imager FX. The intensity of each reaction product was quantified using Bio-Rad Quantity One software. FIGS. 20-59′ depict the results of extension studies conducted using specific Phi29 mutants.

[3] = system: template specifying incorporation of a single γ-labeled nucleotide; experiment: Real time on-surface single molecule detection of γ-labeled nucleotide incorporation; settings: for Activity on Detection System: more signals: number of signals relative to parent enzyme; for Activity on Detection System: Signals detected (timing of appearance) / Activity on Detection System: high ASB signals / Activity on Detection System: long duration signals: relative to parent enzyme
Protocol: Real time “On surface” experiments were performed to characterize the activity of the Phi29 variants on an exemplary single molecule sequencing system (FIGS. 72A and B). Chambered slides were prepared to facilitate injection and multiple experiments data collection from several chambers using a single slide. The template specified incorporation of a single γ-labeled nucleotide. The samples were excited using a 488 nm Argon ion laser at 2.5 mW and the data were collected at 25 ms integration time. Each stream of data was collected for 1500 frames, consecutive streams were collected for ˜5 minutes by moving to new fields of views (FOVs). FRETAN software was used to obtain the donor and acceptor traces.
After trace analysis, the selected signals (with acceptor signal over background greater than 4, i.e., ASN≧4) were characterized by examining attributes including duration, ASN and timing of signal appearance (i.e., start of signals). The variants that are of special interest include Variants 2 and 3.

γ-dGTP = experiment: 7-base homopolymeric extension reactions (FIG. 19B, 19C); settings: for extension under limiting conditions: 30 second to 1 minute extension time
From the text: When the aspartic acid at position 456 is mutated, the activity is reduced but still detectable. FIG. […]
Three residues that have been implicated in catalysis of nucleotide incorporation by phi29 DNA polymerase are D458, D456, and V250 (Berman, Kamtekar et al., 2007). […] In one embodiment, D456 is mutated to glutamic acid, thus distorting the active site, but still allowing catalysis due to the presence of the functional group. The backbone of V250 additionally appears to play a role in catalysis; in some embodiments, the chemistry step will be slowed by mutating the V250 residue to an isoleucine or alanine in order to slow the chemistry step.

[4] = system: 5′ fluorescein-labeled primer:template duplex; experiment: Replication fidelity: primer extension with incorrect (non-complementary) gamma-labeled nucleotide; settings: incorrect gamma-labeled nucleotide in lieu of the complementary one
Protocol: To assay the replication fidelity of each mutant Phi29 polymerase protein, primer extensions were carried out in the same manner, except that an incorrect (i.e., non-complementary) gamma-labeled nucleotide was added to the extension mixture in lieu of the complementary nucleotide, and the amount of extended product following extension in presence of the incorrect nucleotide was analyzed.

dG2Oy650 = experiment: Inc50: nucleotide concentration at which half of the primer is extended one base in sixty seconds; settings: dG2Oy650 in duplicate
From the text: In one exemplary embodiment, an alanine was substituted for the valine at position 250. As is seen in FIG. 70C (Variant 5) the rate of extension by this mutant polymerase is decreased relative to wild type. […] To compensate for the reduced extension we combined V250A with several mutations that increase binding efficiency of γ-modified nucleotides. […] As is seen in FIG. 70C, Variant 2, the extension of the V250A mutant is improved through introduction of the E375Y mutation. The mutation V250A was also combined with the mutations E375A/Q380A as well as E375C.

[5] = system: template specifying incorporation of a single γ-labeled nucleotide followed by a base-labeled nucleotide; experiment: On-surface single molecule detection, single γ-labeled nucleotide followed by a base-labeled nucleotide; settings: for frequency of γ-signals detected: single γ and base-labeled nucleotide incorporation
Protocol: Similar experiments were performed using a template specifying incorporation of a single γ-labeled nucleotide followed by a base-labeled nucleotide and data were analyzed as described above.
Example sets of signals detected using Phi29 variants over time are shown (FIGS. 72-75). […] Next, considering the appearance of BL-signals, the signals for the parent enzyme (#1) are nicely distributed and follow a Gaussian distribution (peak in the 121-180 second bin), whereas Variant 2's BL-signals appear between 0-120 seconds—again indicating an earlier appearance of signals when Variant 2 is compared with the parent enzyme.

## D12A/D66A/D169A: Phi29 polymerase exo minus variant
[1]
  exonuclease activity: exo deficient

## D169A: Phi29 polymerase variant generated by total DNA synthesis [Variant D169A]
[1]
  exonuclease activity: exo deficient

## D456E: Phi29 exo(−) (D12A/D66A) polymerase mutant [Variant D456E]
[2]; γ-nucleotides
  Ensemble Extension Activity: first base extension: Increased first
[3]
  Activity on Detection System: more signals: Fewer signals.
γ-dGTP; 1 μM γ-dGTP
  extension under limiting conditions: significant impact

## D456N: Phi29 exo(−) (D12A/D66A) polymerase mutant [Variant D456N]
[2]
  Ensemble Extension Activity: γ-nucleotide incorporation: Impaired
[3]
  Activity on Detection System: more signals: Fewer signals.
γ-dGTP; 1 μM γ-dGTP
  extension under limiting conditions: significant impact
γ-dGTP; 1 μM γ-dGTP, listed as D456 to an asparagine
  extension under limiting conditions: significantly reduced extension
γ-dGTP; 5 minutes with 5 μM nucleotides
  extension under permissive conditions: somewhat reduced extension

## D458N: Phi29 exo(−) (D12A/D66A) polymerase mutant [Variant D458N]
[2]
  Ensemble Extension Activity: γ-nucleotide incorporation: No activity
[4]
  Fidelity (mis-incorporation): No activity

## E375A: Phi29 exo(−) (D12A/D66A) polymerase mutant [Variant E375A]
[2]; γ-nucleotides
  extension (FIG. 70C, 70D): increased extension
[2]
  Ensemble Extension Activity: γ-nucleotide incorporation: More efficient
[4]
  Fidelity (mis-incorporation): No mis-
[3]
  Activity on Detection System: more signals: 3x more signals.
dG2Oy650
  Inc50: reduced

## N62D: mutant based on wild type Φ29 DNA polymerase [Variant N62D]
[1]
  exonuclease activity: Still has exo

## Parent Enzyme Phi29exo(−) D12A/D66A: Phi29 polymerase with mutations D12A and D66A, SEQ. ID: 3, reduced exonuclease activity
[2]
  Ensemble Extension Activity: γ-nucleotide incorporation: Benchmark
[4]
  Fidelity (mis-incorporation): No mis-
[3]
  Activity on Detection System: more signals: Benchmark
[1]; listed as D12A/D66A
  exonuclease activity: exo deficient
[1]; listed as Phi29 exo(−)
  exonuclease activity: reduced exonuclease activity
[5]
  appearance of BL-signals after injection (window; peak bin for parent): 121 to 180 s
  frequency of γ-signals detected: few signals are detected

## Phi29: Phi29 polymerase benchmark of the Inc50 comparison in Table 1; probably the exo(−) parent [reference compound]
dG2Oy650
  Inc50: (Phi29 = 0.14)

## Q380A: Phi29 exo(−) (D12A/D66A) polymerase mutant [Variant Q380A]
[2]
  Ensemble Extension Activity: γ-nucleotide incorporation: More efficient
[4]
  Fidelity (mis-incorporation): No mis-
[3]
  Activity on Detection System: more signals: 2.5x more signals.

## T15I: mutant based on wild type Φ29 DNA polymerase [Variant T15I]
[1]
  exonuclease activity: Still has exo

## V250A/E375A/Q380A: Phi29 exo(−) (D12A/D66A) polymerase mutant
[2]
  Ensemble Extension Activity: γ-nucleotide incorporation: Decreased rate
[4]
  Fidelity (mis-incorporation): appears to remain intact; also recorded: No mis-
[3]
  Activity on Detection System: more signals: 3x more signals.
  Activity on Detection System: Signals detected (timing of appearance): earlier.
  Activity on Detection System: high ASB signals: More high ASB signals.
  Activity on Detection System: long duration signals: More long duration

## V250A/E375C: Phi29 exo(−) (D12A/D66A) polymerase mutant
[2]
  Ensemble Extension Activity: γ-nucleotide incorporation: Decreased rate
[4]
  Fidelity (mis-incorporation): appears to remain intact; also recorded: No mis-
[3]
  Activity on Detection System: more signals: 3.5x more signals.
  Activity on Detection System: Signals detected (timing of appearance): earlier.
  Activity on Detection System: long duration signals: More long duration

## V250A/E375Y: Phi29 exo(−) (D12A/D66A) polymerase mutant
[2]; γ-nucleotides, listed as 2
  extension (FIG. 70C, 70D): slowed in incorporation
[2]; γ-nucleotides, listed as Variant 2
  extension (FIG. 70C, 70D): improved
[2]
  Ensemble Extension Activity: γ-nucleotide incorporation: Decreased rate
[4]
  Fidelity (mis-incorporation): appears to remain intact; also recorded: No mis-
[3]
  Activity on Detection System: more signals: 3x more signals.
  Activity on Detection System: high ASB signals: More high ASB signals.
  Activity on Detection System: long duration signals: More long duration
[3]; signals with ASN≧4
  ASN of signals (population of molecules): higher ASN
  duration of signals (population of molecules): longer duration
  frequency of events detected: higher frequency of events detected
[5]
  appearance of BL-signals after injection (window; peak bin for parent): 0 to 120 s
  time after injection in which most of the γ-signals are detected: ≤ 60 s
  frequency of γ-signals detected: higher frequency

## V250A: Phi29 exo(−) (D12A/D66A) polymerase mutant [Variant V250A]
[2]; γ-nucleotides
  extension (FIG. 70C, 70D): decreased
[2]
  Ensemble Extension Activity: γ-nucleotide incorporation: Decreased rate
[3]
  Activity on Detection System: more signals: Fewer signals.
dG2Oy650
  Inc50: remains relatively unaffected
γ-dGTP; 1 μM γ-dGTP
  extension within a minute: at least 5 bases
  extension under limiting conditions: visibly slowing down extension

## V250I: Phi29 exo(−) (D12A/D66A) polymerase mutant [Variant V250I]
[2]
  Ensemble Extension Activity: γ-nucleotide incorporation: Decreased rate
[3]
  Activity on Detection System: long duration signals: More long duration

From patent US20110165652A1, “COMPOSITIONS, METHODS AND SYSTEMS FOR SINGLE MOLECULE SEQUENCING” (LIFE TECHNOLOGIES CORPORATION, priority 2008, published 2011)
